Results on 86 compounds are retold here after the Kinase Knowledgebase extract (Sharma et al. 2016).

The assay addresses PIK3CG (human) (UniProt P48736). In words: Assessment of PIK3CG Kinase Activity.

Structures are written as SMILES. Bounds are passed on as bounds.

Sequence of PIK3CG (human) (P48736 whole entry, looked up): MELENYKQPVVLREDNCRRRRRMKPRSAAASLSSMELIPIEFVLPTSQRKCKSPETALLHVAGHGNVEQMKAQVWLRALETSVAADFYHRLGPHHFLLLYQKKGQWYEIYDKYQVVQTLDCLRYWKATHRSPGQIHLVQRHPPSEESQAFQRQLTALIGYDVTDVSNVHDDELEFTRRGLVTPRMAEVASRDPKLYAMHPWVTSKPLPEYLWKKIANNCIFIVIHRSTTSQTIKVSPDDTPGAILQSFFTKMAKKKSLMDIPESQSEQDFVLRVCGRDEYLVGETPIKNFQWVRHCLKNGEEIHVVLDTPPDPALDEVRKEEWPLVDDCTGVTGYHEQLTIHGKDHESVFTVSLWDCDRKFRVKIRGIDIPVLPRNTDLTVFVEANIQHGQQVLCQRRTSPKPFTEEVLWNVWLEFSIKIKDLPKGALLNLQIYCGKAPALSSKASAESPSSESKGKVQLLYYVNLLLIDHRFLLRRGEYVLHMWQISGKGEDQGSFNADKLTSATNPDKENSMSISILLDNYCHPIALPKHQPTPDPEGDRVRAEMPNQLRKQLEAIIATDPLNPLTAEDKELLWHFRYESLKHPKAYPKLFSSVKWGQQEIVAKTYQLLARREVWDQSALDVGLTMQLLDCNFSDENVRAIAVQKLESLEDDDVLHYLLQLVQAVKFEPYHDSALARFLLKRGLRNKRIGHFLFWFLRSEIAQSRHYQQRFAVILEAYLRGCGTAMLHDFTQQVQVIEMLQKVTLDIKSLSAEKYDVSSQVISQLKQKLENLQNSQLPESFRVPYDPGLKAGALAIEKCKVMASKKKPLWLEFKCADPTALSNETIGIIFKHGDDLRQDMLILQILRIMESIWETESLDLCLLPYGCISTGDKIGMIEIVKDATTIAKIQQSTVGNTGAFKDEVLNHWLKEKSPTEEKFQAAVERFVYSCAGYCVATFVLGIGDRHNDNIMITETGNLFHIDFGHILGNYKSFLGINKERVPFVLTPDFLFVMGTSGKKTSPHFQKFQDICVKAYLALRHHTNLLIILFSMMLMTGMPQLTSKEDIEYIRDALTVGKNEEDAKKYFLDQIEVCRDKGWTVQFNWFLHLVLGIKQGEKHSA

Turning to `CC(=O)Nc1nc2c(s1)-c1c(cnn1-c1ccc(CCNC(=O)c3ccccc3)cc1)CC2`, the IC50 is under 800 nM.

Consider `CC(=O)Nc1nc2c(s1)-c1c(cnn1-c1ccc(C(=O)NCc3cccnc3)cc1)CC2`, for which the IC50 is under 800 nM.

`COC(=O)c1nn(-c2ccccc2C)c2c1CCc1nc(NC(C)=O)sc1-2` had an IC50 of under 800 nM.

`CC(=O)Nc1nc2c(s1)-c1c(cnn1-c1ccc(C(=O)Nc3ccc(N4CCN(C)CC4)cc3)cc1)CC2` returned an IC50 of under 800 nM.

`CCc1ccccc1-n1ncc2c1-c1sc(NC(C)=O)nc1CC2`: the IC50 was under 800 nM.

On to `CC(=O)Nc1nc2c(s1)-c1c(cnn1-c1c(Cl)cccc1Cl)C2`, for which the IC50 was under 800 nM.

In the case of `CN(C)C(=O)Nc1nc2c(s1)-c1nc(N(C)C)ncc1CC2`, the IC50 was under 800 nM.

`CC(=O)Nc1nc2c(s1)-c1c(cnn1-c1ccc(C(=O)N3CCCC(O)C3)cc1)CC2` (stereo unspecified) gave an IC50 of under 800 nM.

`CN(C)CCCC(=O)Nc1nc2c(s1)-c1c(cnn1-c1ccccc1Cl)C2` displayed an IC50 of under 800 nM.

As for `Nc1nc2c(s1)-c1nc(-c3ccccc3)ncc1CC2`, the IC50 is under 800 nM.

In turn, `CCN1CCCC1CNCC(=O)Nc1nc2c(s1)-c1c(cnn1-c1ccccc1)CC2` (stereo unspecified) displayed an IC50 of under 800 nM.

The compound `CC(=O)Nc1nc2c(s1)-c1c(c(-c3ccco3)nn1-c1ccc(C(=O)N(C)C)cc1Cl)CC2` registered an IC50 of under 800 nM.

Compound `CNC(=O)Nc1nc2c(s1)-c1nc(N(C)C)ncc1CC2` had an IC50 of under 800 nM.

`CC(=O)Nc1nc2c(s1)-c1c(cnn1-c1ccc(C(=O)NC3CCN(C)CC3)cc1)CC2` gave an IC50 of under 800 nM.

The compound `CC(=O)Nc1nc2c(s1)-c1c(cnn1-c1ccc(CC(=O)N(C)C)cc1)CC2` showed an IC50 of under 800 nM.

In the case of `CC(=O)Nc1nc2c(s1)-c1c(cnn1-c1ccc(CC(=O)NC3CCS(=O)(=O)C3)cc1)CC2` (stereo unspecified), the IC50 is under 800 nM.

In turn, `CC(=O)Nc1nc2c(s1)-c1c(cnn1-c1ccc(C(=O)N[C@@H](Cc3cc4ccccc4[nH]3)C(N)=O)cc1Cl)CC2` returned an IC50 of under 800 nM.

Take `CC(=O)Nc1nc2c(s1)-c1c(c(C(C)C)nn1-c1ccccc1C(F)(F)F)CC2`: the half-inhibitory concentration (IC50) was under 800 nM.

For `CC(=O)Nc1nc2c(s1)-c1c(c(C(=O)O)nn1-c1ccccc1)CC2`, the IC50 was under 800 nM.

As for `NC(=O)Nc1nc2c(s1)-c1c(cnn1-c1ccccc1)CC2`, the IC50 was under 800 nM.

With `CC(=O)Nc1nc2c(s1)-c1c(cnn1-c1ccc(C(=O)N(C)Cc3ccccc3)cc1)CC2`, the IC50 was under 800 nM.

Turning to `CC=Cn1cc2c(n1)-c1sc(NC(C)=O)nc1CC2`, the IC50 is under 800 nM.

In turn, `CC(=O)Nc1nc2c(s1)-c1c(cnn1-c1ccc(C(=O)N[C@@H](CCCNC(=N)N)C(N)=O)cc1Cl)CC2` came in with a concentration for half-maximal inhibition (IC50) of under 800 nM.

The compound `CC(=O)Nc1nc2c(s1)-c1c(c(C(C)C)nn1-c1ccc(C(=O)NC3CCN(C)CC3)cc1Cl)CC2` registered an IC50 of under 800 nM.

The compound `CC(=O)Nc1nc2c(s1)-c1c(cnn1-c1ccc(C(=O)NC3CCC(NC(=O)c4cccc5ccccc45)CC3)cc1)CC2` (stereo unspecified) came in with an IC50 of under 800 nM.

`CC(=O)Nc1nc2c(s1)-c1nn(C(=O)c3ccccc3)cc1CC2` came in with an IC50 of under 800 nM.

On to `NNC(=O)Nc1nc2c(s1)-c1c(cnn1-c1ccccc1)CC2`, for which the IC50 was under 800 nM.

Take `CC(=O)Nc1nc2c(s1)-c1nn(-c3ccc(C(=O)N[C@H]4CC[C@H](N5CCCC5)CC4)cc3)c(-c3ccco3)c1CC2`: the IC50 is under 800 nM.

With `CC(=O)Nc1nc2c(s1)-c1c(cnn1-c1ccc(C(=O)N[C@H]3CC[C@H](N4C[C@@H](C)O[C@@H](C)C4)CC3)cc1)CC2`, the IC50 was under 800 nM.

Compound `CC(=O)Nc1nc2c(s1)-c1c(cnn1-c1ccncc1)CC2` had a half-inhibitory concentration (IC50) of under 800 nM.

As to `NC(=O)Nc1nc2c(s1)-c1nc(-c3ccccc3)ncc1CC2`, the IC50 was under 800 nM.

As for `CC(=O)Nc1nc2c(s1)-c1c(cnn1-c1ccc(C(=O)Nc3ccc(C4CCN(C)CC4)cc3)cc1Cl)CC2`, the IC50 was under 800 nM.

On to `CCCCn1ncc2c1-c1sc(NC(C)=O)nc1CC2`, for which the IC50 was under 800 nM.

In turn, `CC(=O)Nc1nc2c(s1)-c1c(cnn1-c1ccc(C(=O)N[C@@H](CCc3ccccc3)C(N)=O)cc1Cl)CC2` returned a 50% inhibitory concentration (IC50) of under 800 nM.

As to `CC(=O)Nc1nc2c(s1)-c1c(cnn1-c1ccc(C(=O)N[C@H](CC(C)C)C(N)=O)cc1Cl)CC2`, the concentration for half-maximal inhibition (IC50) was under 800 nM.

`CC(=O)Nc1nc2c(s1)-c1c(cnn1-c1ccc(C(=O)N[C@H]3CC[C@@H](N4CCCC4)CC3)cc1)CC2`: the IC50 is under 800 nM.

With `CC(=O)Nc1nc2c(s1)-c1nn(-c3ccc(C(=O)NC4CCN(C5CCCC5)CC4)cc3Cl)c(-c3ccco3)c1CC2`, the IC50 was under 800 nM.

As to `CC(=O)Nc1nc2c(s1)-c1c(cnn1-c1ccc(CC(=O)N3CCN(c4ccccn4)CC3)cc1)CC2`, the IC50 is under 800 nM.

Compound `CC(=O)Nc1nc2c(s1)-c1c(cnn1-c1ccc(C(=O)NCCc3cn[nH]c3)cc1)CC2` gave a concentration for half-maximal inhibition (IC50) of under 800 nM.

`CC(=O)Nc1nc2c(s1)-c1c(cnn1-c1ccc(C(=O)N[C@@H](C(N)=O)C(C)C)cc1Cl)CC2` displayed an IC50 of under 800 nM.

In turn, `CC(=O)Nc1nc2c(s1)-c1nn(-c3ccc(C(=O)NC4CCN(C)CC4)cc3Cl)c(-c3ccco3)c1CC2` displayed an IC50 of under 800 nM.

On to `CCSc1ncc2c(n1)-c1sc(NC(C)=O)nc1CC2`, for which the IC50 is under 800 nM.

In turn, `CC(=O)Nc1nc2c(s1)-c1nn(C(=O)c3ccccc3Cl)cc1CC2` registered an IC50 of under 800 nM.

`CC(=O)Nc1nc2c(s1)-c1c(cnn1-c1ccc(CC(=O)N3CCN(C(C)=O)CC3)cc1)CC2` came in with an IC50 of under 800 nM.

`CC(=O)Nc1nc2c(s1)-c1c(cnn1-c1ccc(C(=O)NC3CCOC3=O)cc1)CC2` (stereo unspecified) returned a 50% inhibitory concentration (IC50) of under 800 nM.

Consider `CC(=O)Nc1nc2c(s1)-c1nn(-c3ccccc3C)c(-c3cn(C)cn3)c1CC2`, for which the concentration for half-maximal inhibition (IC50) was under 800 nM.

Compound `CC(=O)Nc1nc2c(s1)-c1c(cnn1-c1ccc(C(=O)N[C@@H](Cc3ccc4ccccc4c3)C(N)=O)cc1Cl)CC2` registered an IC50 of under 800 nM.

Regarding `CC(=O)Nc1nc2c(s1)-c1c(cnn1-c1ccc(C(=O)N[C@H](CCCCNC(=N)N)C(N)=O)cc1Cl)CC2`, the IC50 was under 800 nM.

`CC(=O)Nc1nc2c(s1)-c1c(cnn1-c1ccc(C(=O)NCCc3c[nH]cn3)cc1)CC2` registered an IC50 of under 800 nM.

Consider `CC(=O)Nc1nc2c(s1)-c1c(cnn1-c1ccc3cn[nH]c3c1)CC2`, for which the IC50 was under 800 nM.

`Cc1ccccc1-c1ncc2c(n1)-c1sc(NC(=O)N(C)C)nc1CC2` returned an IC50 of under 800 nM.

On to `CC(=O)Nc1nc2c(s1)-c1c(c(C(=O)N3CCSC3)nn1-c1ccccc1)CC2`, for which the IC50 is under 800 nM.

In turn, `CN(C)c1ncc2c(n1)-c1sc(NC(N)=O)nc1CC2` gave an IC50 of under 800 nM.

The compound `CC(=O)Nc1nc2c(s1)-c1nn(-c3ccccc3Cl)c(-c3ccco3)c1CC2` came in with an IC50 of under 800 nM.

In turn, `CCN1CCCC(NC(=O)c2ccc(-n3ncc4c3-c3sc(NC(C)=O)nc3CC4)cc2)C1` (stereo unspecified) came in with a half-inhibitory concentration (IC50) of under 800 nM.

`CCCn1ncc2c1-c1sc(NC(C)=O)nc1CC2` came in with a 50% inhibitory concentration (IC50) of under 800 nM.

Compound `CC(=O)Nc1nc2c(s1)-c1nc(N3CCCC(CNC(C)C)C3)ncc1CC2` (stereo unspecified) had an IC50 of under 800 nM.

In turn, `CC(=O)Nc1nc2c(s1)-c1c(cnn1-c1ccc(C(=O)NCCC3CCCN3C)cc1)CC2` (stereo unspecified) had an IC50 of under 800 nM.

`C#Cc1nn(-c2ccccc2C(F)(F)F)c2c1CCc1nc(NC(C)=O)sc1-2` gave an IC50 of under 800 nM.

`CC(=O)Nc1nc2c(s1)-c1c(cnn1-c1ccc(CC(=O)N3CCC(C(N)=O)CC3)cc1)CC2` had an IC50 of under 800 nM.

Turning to `CC(=O)Nc1nc2c(s1)-c1c(cnn1-c1ccc(C(=O)N3CCc4[nH]cnc4C3)cc1)CC2`, the 50% inhibitory concentration (IC50) was under 800 nM.

As to `COc1ccc(-n2ncc3c2-c2sc(NC(C)=O)nc2C3)cc1`, the IC50 is under 800 nM.

On to `CS(=O)(=O)c1cccc(Nc2nc3c(s2)-c2c(cnn2-c2ccccc2)CC3)c1`, for which the IC50 is under 800 nM.

On to `CC(=O)Nc1nc2c(s1)-c1nc(C3CC3)ncc1CC2`, for which the IC50 was under 800 nM.

`COC(=O)c1nn(-c2ccccc2C(F)(F)F)c2c1CCc1nc(NC(C)=O)sc1-2` came in with an IC50 of under 800 nM.

Consider `CC(=O)Nc1nc2c(s1)-c1c(cnn1-c1ccc(C(=O)N3CCC4(CC3)CNC(=O)O4)cc1)CC2`, for which the half-inhibitory concentration (IC50) is under 800 nM.

For the compound `CN(C)CCNC(=O)Nc1nc2c(s1)-c1c(cnn1-c1ccccc1)C2`, the IC50 was under 800 nM.

Compound `CC(=O)Nc1nc2c(s1)-c1c(cnn1-c1ccccn1)CC2` returned an IC50 of under 800 nM.

`CC(=O)Nc1nc2c(s1)-c1c(c([C@H]3CCCO3)nn1-c1ccccc1C(F)(F)F)CC2` returned an IC50 of under 800 nM.

In the case of `CNC(=O)c1nn(-c2ccccc2Cl)c2c1CCc1nc(NC(C)=O)sc1-2`, the IC50 was under 800 nM.

With `COc1ccccc1-n1ncc2c1-c1sc(NC(C)=O)nc1C2`, the IC50 is under 800 nM.

`CNC(=O)Nc1nc2c(s1)-c1nc(-c3ccccc3)ncc1CC2` had an IC50 of under 800 nM.

For `CC(=O)Nc1nc2c(s1)-c1c(cnn1-c1ccc(CC(=O)NCC3OCCO3)cc1)CC2`, the 50% inhibitory concentration (IC50) was under 800 nM.

For `O=C(Nc1nc2c(s1)-c1c(cnn1-c1ccccc1)CC2)N1CCOCC1`, the IC50 is under 800 nM.

The compound `CCCn1cc2c(n1)-c1sc(NC(C)=O)nc1CC2` came in with an IC50 of under 800 nM.

In the case of `CC(=O)Nc1nc2c(s1)-c1c(cnn1-c1ccc(N3C4CCC3CC(O)C4)cc1)CC2` (stereo unspecified), the IC50 is under 800 nM.

In the case of `CC(=O)Nc1nc2c(s1)-c1c(cnn1-c1ccc(C(=O)NC(CN3CCOCC3)CN3CCOCC3)cc1)CC2`, the IC50 is under 800 nM.

Consider `CC(=O)Nc1nc2c(s1)-c1c(c(C(=O)O)nn1-c1ccccc1Cl)CC2`, for which the IC50 is under 800 nM.

The compound `CC(=O)Nc1nc2c(s1)-c1c(cnn1-c1ccc(CC(=O)NCCCN3CCOCC3)cc1)CC2` gave a half-inhibitory concentration (IC50) of under 800 nM.

Regarding `CCOC(=O)c1n[nH]c2c1CCc1nc(NC(C)=O)sc1-2`, the IC50 is under 800 nM.

In turn, `CC(=O)Nc1nc2c(s1)-c1c(cnn1-c1ccc(C(=O)N3CCC(N4CCOCC4)CC3)cc1)CC2` came in with a concentration for half-maximal inhibition (IC50) of under 800 nM.

`COc1ccccc1-c1ncc2c(n1)-c1sc(NC(N)=O)nc1CC2` came in with an IC50 of under 800 nM.

Compound `CC(=O)Nc1nc2c(s1)-c1c(cnn1-c1ccc(C(=O)N[C@H]3CCc4nc(N)sc4C3)cc1)CC2` yielded an IC50 of under 800 nM.

In turn, `CC(=O)Nc1nc2c(s1)-c1c(cnn1-c1ccc(C(=O)N[C@H]3CC[C@H](N4CCCC4)CC3)cc1)CC2` gave an IC50 of under 800 nM.

Turning to `CC(=O)Nc1nc2c(s1)-c1c(cnn1-c1ccc(C(=O)N[C@@H](CCS(C)(=O)=O)C(N)=O)cc1Cl)CC2`, the IC50 was under 800 nM.

The compound `CC(=O)Nc1nc2c(s1)-c1c(cnn1-c1ccc(C(=O)N[C@@H]3CCOC3=O)cc1)CC2` yielded a 50% inhibitory concentration (IC50) of under 800 nM.

As usually defined, the IC50 is the midpoint of a concentration-inhibition curve. A high value points to a need for much substance.
